Source: patent US20240373851A1, “PEST CONTROL COMPOSITION AND PEST CONTROL METHOD” (SUMITOMO CHEMICAL COMPANY, LIMITED, priority 2021, published 2024)

Legend:
Type in all cases: in vivo
[1] = tested on: German cockroaches (Blattella germanica); assay: Test Example 6: control test against German cockroaches, spray in chamber; conditions: adult German cockroaches; 1.5 mL sprayed; concentration [%]: isocycloseram 0.05, imiprothrin 0.01, lambda-cyhalothrin 0.0025, alone or mixed; 60 minutes after spraying
Protocol: (§1) Next, the usefulness of the inventive composition for controlling pests will be indicated by Test Examples. In general, the control effect to be expected when treated with a mixture obtained by mixing given two or three types of active ingredient compounds is determined by the Colby's calculation equation represented by the following [Equation 1] and [Equation 2].
(§2) [formula] • P: moribund and mortal rates (%) when treated with an active ingredient compound X in the concentration of m [ppm] • Q: moribund and mortal rates (%) when treated with an active ingredient compound Y in the concentration of n [ppm] • EA: moribund and mortal rates (%) when treated with an active ingredient compound X in the concentration of m [ppm] and an active ingredient compound Y in the concentration of n [ppm] (hereinafter referred to as expected value A) […]
(§3) Regarding the synergistic effect of three types of the active ingredient compounds, in case where the moribund and mortal rates (%) when actually treated with a mixture obtained by mixing three types of the active ingredient compounds exceed the expected value A calculated by using the moribund and mortal rates (%) when actually treated with a mixture obtained by mixing two types of the active ingredient compounds among three types thereof, and the moribund and mortal rates (%) calculated when actually treated the remaining one type of the active ingredient compound, or the expected value B (%) calculated from the moribund and mortal rates (%) when actually treated with each of three types of the active ingredient compounds alone, it was determined that the synergistic effect exists. […]

[2] = tested on: German cockroaches (Blattella germanica); assay: Test Example 8: control test against German cockroaches, spray in chamber; conditions: adult German cockroaches; 1.5 mL sprayed; concentration [%]: nicofluprole 0.01, imiprothrin 0.01, phenothrin 0.1, alone or mixed; 45 minutes after spraying
Protocol: as §1, §2, §3

[3] = tested on: German cockroaches (Blattella germanica); assay: Test Example 10: control test against German cockroaches, spray in chamber; conditions: adult German cockroaches; 1.5 mL sprayed; concentration [%]: nicofluprole 0.01, imiprothrin 0.01, permethrin 0.05, alone or mixed; 60 minutes after spraying
Protocol: as §1, §2, §3

## C#CCN1CC(=O)N(COC(=O)[C@@H]2C(C=C(C)C)C2(C)C)C1=O (mixture of isomers) [Imiprothrin, imiprothrin]
[1]
  Moribund and mortal rates [%] after 60 minutes: 25%
[2]
  Moribund and mortal rates [%] after 45 minutes: 65%
[3]
  Moribund and mortal rates [%] after 60 minutes: 40%
